Columns and labels:
[1] = Growth inhibition of human T47D cells at 30 uM after 72 hrs by MTT assay; format: functional; conditions: read-out: GI
[2] = target: T1, Steroid 17-alpha-hydroxylase/17,20 lyase (Rattus norvegicus, UniProt P11715); experiment: Inhibition of Wistar rat testicular C17,20-lyase assessed as androst-4-ene-3,17-dione formation using [3H]17-hydroxyprogesterone as substrate in presence of NADPH
T1 sequence (P11715 whole entry): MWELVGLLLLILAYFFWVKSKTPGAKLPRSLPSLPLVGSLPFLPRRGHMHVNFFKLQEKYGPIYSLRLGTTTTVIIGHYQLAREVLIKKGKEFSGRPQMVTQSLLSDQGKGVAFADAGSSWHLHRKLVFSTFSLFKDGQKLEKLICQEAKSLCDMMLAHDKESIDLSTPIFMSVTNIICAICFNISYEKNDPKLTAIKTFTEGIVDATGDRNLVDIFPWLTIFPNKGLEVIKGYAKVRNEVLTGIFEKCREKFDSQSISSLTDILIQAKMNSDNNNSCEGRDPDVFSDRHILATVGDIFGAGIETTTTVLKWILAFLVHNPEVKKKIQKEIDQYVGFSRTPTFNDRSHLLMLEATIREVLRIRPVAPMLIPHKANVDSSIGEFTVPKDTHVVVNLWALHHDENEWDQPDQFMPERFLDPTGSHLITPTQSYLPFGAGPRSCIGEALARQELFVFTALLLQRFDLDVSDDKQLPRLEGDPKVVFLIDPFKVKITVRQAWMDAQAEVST

[3] = Growth inhibition of human MDA-MB-231 cells at 30 uM after 72 hrs by MTT assay; format: functional; conditions: MDA-MB-231, 72 h, read-out: GI
[4] = Growth inhibition of human MCF7 cells at 30 uM after 72 hrs by MTT assay; format: functional; conditions: MCF7, 72 h, read-out: GI
[5] = Growth inhibition of human MCF7 cells at 10 uM after 72 hrs by MTT assay; format: functional; conditions: MCF7, 72 h, read-out: GI
[6] = Growth inhibition of human T47D cells at 10 uM after 72 hrs by MTT assay; format: functional; conditions: read-out: GI
[7] = Growth inhibition of human MDA-MB-361 cells at 30 uM after 72 hrs by MTT assay; format: functional; conditions: MDA-MB-361, 72 h, read-out: GI
[8] = Growth inhibition of human MDA-MB-231 cells at 10 uM after 72 hrs by MTT assay; format: functional; conditions: MDA-MB-231, 72 h, read-out: GI
[9] = Growth inhibition of human MDA-MB-361 cells at 10 uM after 72 hrs by MTT assay; format: functional; conditions: MDA-MB-361, 72 h, read-out: GI
[10] = target: T1, Steroid 17-alpha-hydroxylase/17,20 lyase; experiment: Potency index, ratio of ketoconazole IC50 to compound IC50 for Wistar rat testicular C17,20-lyase
[11] = Growth inhibition of human MCF7 cells after 72 hrs by MTT assay; format: functional, cell-based; conditions: MCF7, 72 h
[12] = Growth inhibition of human MDA-MB-361 cells after 72 hrs by MTT assay; format: functional, cell-based; conditions: MDA-MB-361, 72 h
[13] = Growth inhibition of human MDA-MB-231 cells after 72 hrs by MTT assay; format: functional, cell-based; conditions: MDA-MB-231, 72 h
[14] = Growth inhibition of human T47D cells after 72 hrs by MTT assay; format: functional, cell-based

| SMILES | inhibition of growth at 30 µM [1] | IC50 [2] | inhibition of growth at 30 µM [3] | inhibition of growth at 30 µM [4] | inhibition of growth at 10 µM [5] | inhibition of growth at 10 µM [6] | inhibition of growth at 30 µM [7] | inhibition of growth at 10 µM [8] | inhibition of growth at 10 µM [9] | Ratio IC50 [10] | IC50 [11] | IC50 [12] | IC50 [13] | IC50 [14] |
| --- | --- | --- | --- | --- | --- | --- | --- | --- | --- | --- | --- | --- | --- | --- |
| C[C@]12CC[C@H](O)CC1=CC[C@@H]1[C@@H]2CC[C@]2(C)C(c3n[nH]cc3C#N)=CC[C@@H]12 | 75.7% | 0.092 µM | 88.4% | 63.4% | 36.6% | 46.8% | 80.4% | 23.3% | 46.6% |  |  |  |  |  |
| C[C@]12CC[C@H](O)CC1=CC[C@@H]1[C@@H]2CC[C@]2(C)C(c3n[nH]cc3CO)=CC[C@@H]12 | 25.7% | 0.026 µM | < 20% | < 20% | < 20% | < 20% | 35.6% | < 20% | < 20% | 12 |  |  |  |  |
| C[C@]12CC[C@H](O)CC1=CC[C@@H]1[C@@H]2CC[C@]2(C)C(c3nn(-c4ccccc4)cc3C=O)=CC[C@@H]12 | 96.9% |  | 96.3% | 98.1% | 93.4% | 93.2% | 95.8% | 93.5% | 88.6% |  | 3.7 µM | 3.8 µM | 5.4 µM | 3.9 µM |
| C[C@]12CC[C@H](O)CC1=CC[C@@H]1[C@@H]2CC[C@]2(C)C(c3cccnc3)=CC[C@@H]12 [ABIRATERONE] | 70.8% |  | 85% | 74.7% | 12.4% | 32.5% | 61.2% | 14.3% | 32.2% |  | 19.3 µM | 20.4 µM | 19.2 µM | 16.9 µM |
| C[C@]12CC[C@H](O)CC1=CC[C@@H]1[C@@H]2CC[C@]2(C)C(c3n[nH]cc3C=O)=CC[C@@H]12 | 77% | 0.066 µM | 93.7% | 80.8% | 31.4% | 43.2% | 79.7% | 54.3% | 42.6% |  |  |  |  |  |
| C[C@]12CC[C@H](O)CC1=CC[C@@H]1[C@@H]2CC[C@]2(C)C(c3ccn[nH]3)=CC[C@@H]12 |  | 0.0077 µM |  |  |  |  |  |  |  |  |  |  |  |  |
| C[C@]12CC[C@H](O)CC1=CC[C@@H]1[C@@H]2CC[C@]2(C)C(c3nn(-c4ccc(C#N)cc4)cc3CO)=CC[C@@H]12 | 94.5% |  | 96.4% | 88.4% | 71.6% | 89.6% | 91.9% | 95.9% | 86.5% |  | 1.4 µM | 1.6 µM | 1.8 µM | 1.2 µM |
| C[C@]12CC[C@H](O)CC1=CC[C@@H]1[C@@H]2CC[C@]2(C)C(c3nn(-c4ccc([N+](=O)[O-])cc4)cc3C=O)=CC[C@@H]12 | 79.6% |  | 77% | 75.1% | 64.8% | 72.5% | 80% | 51.8% | 63.9% |  |  |  |  |  |
| C[C@]12CC[C@H](O)CC1=CC[C@@H]1[C@@H]2CC[C@]2(C)C(c3nn(-c4ccccc4)cc3CO)=CC[C@@H]12 | 90.6% |  | 93.2% | 89.8% | 79.2% | 74.4% | 96.1% | 85.2% | 90.6% |  | 3.4 µM | 2.1 µM | 5.2 µM |  |
| Cc1ccc(-n2cc(CO)c(C3=CC[C@H]4[C@@H]5CC=C6C[C@@H](O)CC[C@]6(C)[C@H]5CC[C@]34C)n2)cc1 | 90.7% |  | 96.6% | 83.3% | 64.8% | 68.7% | 89.4% | 72.4% | 73.5% |  |  |  |  |  |
| Cn1cc(C#N)c(C2=CC[C@H]3[C@@H]4CC=C5C[C@@H](O)CC[C@]5(C)[C@H]4CC[C@]23C)n1 | 29.6% |  | 32.6% | 40.9% | < 20% | < 20% | 32.5% | < 20% | < 20% |  |  |  |  |  |
| C[C@]12CC[C@H](O)CC1=CC[C@@H]1[C@@H]2CC[C@]2(C)C(c3nn(-c4ccc(Br)cc4)cc3CO)=CC[C@@H]12 | 85.9% |  | 88.2% | 86.9% | 65.9% | 68.2% | 91.5% | 76.8% | 83.5% |  |  | 2 µM | 4 µM |  |
| CC(=O)O[C@H]1CC[C@@]2(C)C(=CC[C@@H]3[C@@H]2CC[C@]2(C)C(c4nn(-c5ccc(Cl)cc5)cc4C=O)=CC[C@@H]32)C1 | 62.8% |  | 56.2% | 65.2% | 43.6% | 44.8% | 63.7% | < 20% | 32.1% |  |  |  |  |  |
| C[C@]12CC[C@H](O)CC1=CC[C@@H]1[C@@H]2CC[C@]2(C)C(c3nn(-c4ccc(Cl)cc4)cc3CO)=CC[C@@H]12 | 94.8% |  | 97.8% | 90.9% | 54.3% | 81% | 93.1% | 93.2% | 80% |  |  | 2.5 µM | 3.6 µM | 5.7 µM |
| C[C@]12CC[C@H](O)CC1=CC[C@@H]1[C@@H]2CC[C@]2(C)C(c3nn(-c4ccc([N+](=O)[O-])cc4)cc3CO)=CC[C@@H]12 | 84.7% |  | 92.7% | 87.6% | 65.4% | 73.2% | 91.9% | 78.1% | 82.2% |  |  | 2.7 µM | 4.3 µM |  |
| COc1ccc(-n2cc(C=O)c(C3=CC[C@H]4[C@@H]5CC=C6C[C@@H](O)CC[C@]6(C)[C@H]5CC[C@]34C)n2)cc1 | 96.7% |  | 96.2% | 98.1% | 92.3% | 92.5% | 96.2% | 96.1% | 89.6% |  | 3.8 µM | 3.3 µM | 3.6 µM | 3.7 µM |
